According to ChEMBL document CHEMBL1201862, “PubChem BioAssay data set” (2004):
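Briefly, cells in 96-well plates were exposed to five compound concentrations for 48 h, and endpoints were estimated by linear interpolation. At the GI50, growth is halved.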 Active and inactive are the calls of the source. No stated cut-off is given here; in the data, active = GI50 up to about 1.1 µM and inactive = higher.

Tests used:
Assay in all cases: DTP human tumour cell line panel, 48 h
MOLT-4 = test system: MOLT-4
HL-60 = test system: HL-60
NCI-H23 = test system: NCI-H23
SK-MEL-28 = test system: SK-MEL-28
OVCAR-8 = test system: OVCAR-8
TK-10 = test system: TK-10
COLO 205 = test system: COLO 205
M14 = test system: M14
HCC 2998 = test system: HCC 2998
CCRF-CEM = test system: CCRF-CEM
SK-MEL-5 = test system: SK-MEL-5
UO-31 = test system: UO-31
A549 = test system: A549
U-251 = test system: U-251
CAKI-1 = test system: CAKI-1
OVCAR-4 = test system: OVCAR-4
RXF 393 = test system: RXF 393
UACC-62 = test system: UACC-62
SF-268 = test system: SF-268
M19-MEL = test system: M19-MEL
K562 = test system: K562
SK-OV-3 = test system: SK-OV-3
ACHN = test system: ACHN
EKVX = test system: EKVX
786-0 = test system: 786-0
NCI-H460 = test system: NCI-H460
Malme-3M = test system: Malme-3M
HCT-116 = test system: HCT-116
LOX IMVI = test system: LOX IMVI
A498 = test system: A498
SW-620 = test system: SW-620
SNB-19 = test system: SNB-19
DMS-114 = test system: DMS-114
SF-539 = test system: SF-539
SK-MEL-2 = test system: SK-MEL-2
HOP-92 = test system: HOP-92
IGROV-1 = test system: IGROV-1
SN12C = test system: SN12C
RPMI-8226 = test system: RPMI-8226
NCI-H522 = test system: NCI-H522
HOP-62 = test system: HOP-62
DLD-1 = test system: DLD-1
LXFL 529 = test system: LXFL 529
HCT-15 = test system: HCT-15
SNB-78 = test system: SNB-78
KM-20L2 = test system: KM-20L2
OVCAR-5 = test system: OVCAR-5
NCI-H226 = test system: NCI-H226
SNB-75 = test system: SNB-75
UACC-257 = test system: UACC-257
SF-295 = test system: SF-295
XF498 = test system: XF498
HT-29 = test system: HT-29
DMS-273 = test system: DMS-273
OVCAR-3 = test system: OVCAR-3
KM12 = test system: KM12
SR = test system: SR

## COC(=O)C(=O)C(CC(=O)Nc1cccc(C(F)(F)F)c1)C(=O)OC (configuration not stated)
MOLT-4
  GI50: > 100 µM (inactive)
HL-60
  GI50: > 100 µM (inactive)
NCI-H23
  GI50: > 100 µM (inactive)
SK-MEL-28
  GI50: > 100 µM (inactive)
OVCAR-8
  GI50: > 100 µM (inactive)
TK-10
  GI50: > 100 µM (inactive)
COLO 205
  GI50: > 100 µM (inactive)
M14
  GI50: > 100 µM (inactive)
HCC 2998
  GI50: > 100 µM (inactive)
CCRF-CEM
  GI50: > 100 µM (inactive)
SK-MEL-5
  GI50: > 100 µM (inactive)
UO-31
  GI50: > 100 µM (inactive)
A549
  GI50: > 100 µM (inactive)
U-251
  GI50: > 100 µM (inactive)
CAKI-1
  GI50: > 100 µM (inactive)
OVCAR-4
  GI50: > 100 µM (inactive)
RXF 393
  GI50: > 100 µM (inactive)
UACC-62
  GI50: > 100 µM (inactive)
SF-268
  GI50: > 100 µM (inactive)
M19-MEL
  GI50: > 100 µM (inactive)
K562
  GI50: > 100 µM (inactive)
SK-OV-3
  GI50: > 100 µM (inactive)
ACHN
  GI50: > 100 µM (inactive)
EKVX
  GI50: > 100 µM (inactive)
786-0
  GI50: > 100 µM (inactive)
NCI-H460
  GI50: > 100 µM (inactive)
Malme-3M
  GI50: > 100 µM (inactive)
HCT-116
  GI50: > 100 µM (inactive)
LOX IMVI
  GI50: > 100 µM (inactive)
A498
  GI50: > 100 µM (inactive)
SW-620
  GI50: > 100 µM (inactive)
SNB-19
  GI50: > 100 µM (inactive)
DMS-114
  GI50: > 100 µM (inactive)
SF-539
  GI50: > 100 µM (inactive)
SK-MEL-2
  GI50: > 100 µM (inactive)
HOP-92
  GI50: > 100 µM (inactive)
IGROV-1
  GI50: > 100 µM (inactive)
SN12C
  GI50: > 100 µM (inactive)
RPMI-8226
  GI50: > 100 µM (inactive)
NCI-H522
  GI50: > 100 µM (inactive)
HOP-62
  GI50: > 100 µM (inactive)
DLD-1
  GI50: > 100 µM (inactive)
LXFL 529
  GI50: > 100 µM (inactive)
HCT-15
  GI50: > 100 µM
SNB-78
  GI50: > 100 µM (inactive)
KM-20L2
  GI50: > 100 µM (inactive)
OVCAR-5
  GI50: > 100 µM (inactive)
NCI-H226
  GI50: > 100 µM (inactive)
SNB-75
  GI50: > 100 µM (inactive)

## Cc1ccccc1SC(/C=C/NNC1=NN=C(c2ccccc2)C(c2ccccc2)N1)c1ccccc1 (configuration not stated)
MOLT-4
  GI50: 41.7 µM (inactive)
HL-60
  GI50: > 10 µM (inactive)
NCI-H23
  GI50: 17.5 µM (inactive)
UACC-257
  GI50: 18.6 µM (inactive)
SK-MEL-28
  GI50: 15.7 µM (inactive)
OVCAR-8
  GI50: 13.7 µM (inactive)
TK-10
  GI50: 17.8 µM (inactive)
COLO 205
  GI50: 36.4 µM (inactive)
M14
  GI50: 19.1 µM (inactive)
HCC 2998
  GI50: 40.6 µM (inactive)
CCRF-CEM
  GI50: 27.3 µM (inactive)
SK-MEL-5
  GI50: 26.1 µM (inactive)
UO-31
  GI50: 16.9 µM (inactive)
A549
  GI50: 14.3 µM (inactive)
U-251
  GI50: 24.9 µM (inactive)
CAKI-1
  GI50: 13.7 µM (inactive)
OVCAR-4
  GI50: 2.99 µM (inactive)
RXF 393
  GI50: 11.1 µM (inactive)
UACC-62
  GI50: 29.4 µM (inactive)
SF-268
  GI50: 24.9 µM (inactive)
M19-MEL
  GI50: 26 µM (inactive)
K562
  GI50: 30.2 µM (inactive)
SK-OV-3
  GI50: 22.4 µM (inactive)
ACHN
  GI50: 15.4 µM (inactive)
EKVX
  GI50: 27.2 µM (inactive)
786-0
  GI50: 11.9 µM (inactive)
NCI-H460
  GI50: 34.9 µM (inactive)
Malme-3M
  GI50: 22.4 µM (inactive)
LOX IMVI
  GI50: 33.8 µM (inactive)
A498
  GI50: 23.7 µM (inactive)
SW-620
  GI50: 27.7 µM (inactive)
SNB-19
  GI50: 50 µM (inactive)
SF-295
  GI50: 18.8 µM (inactive)
DMS-114
  GI50: 22.9 µM (inactive)
XF498
  GI50: 34.7 µM (inactive)
SF-539
  GI50: 13.4 µM (inactive)
SK-MEL-2
  GI50: 16.3 µM (inactive)
HOP-92
  GI50: 9.57 µM (inactive)
IGROV-1
  GI50: 27.4 µM (inactive)
SN12C
  GI50: 61.2 µM (inactive)
RPMI-8226
  GI50: 27.5 µM (inactive)
HT-29
  GI50: 29.8 µM (inactive)
DMS-273
  GI50: 35.7 µM (inactive)
OVCAR-3
  GI50: 13.7 µM (inactive)
NCI-H522
  GI50: 33.8 µM (inactive)
HOP-62
  GI50: 17.7 µM (inactive)
DLD-1
  GI50: 37.5 µM (inactive)
HCT-15
  GI50: 34 µM
SNB-78
  GI50: 22 µM (inactive)
KM12
  GI50: 28.4 µM (inactive)
KM-20L2
  GI50: 52 µM (inactive)
OVCAR-5
  GI50: > 100 µM (inactive)
NCI-H226
  GI50: 18.3 µM (inactive)
SNB-75
  GI50: 5.68 µM (inactive)

## COc1cc(C=O)cc(O)c1O
MOLT-4
  GI50: > 100 µM (inactive)
HL-60
  GI50: 46.7 µM (inactive)
NCI-H23
  GI50: > 100 µM (inactive)
UACC-257
  GI50: > 100 µM (inactive)
SK-MEL-28
  GI50: > 100 µM (inactive)
OVCAR-8
  GI50: > 100 µM (inactive)
TK-10
  GI50: > 100 µM (inactive)
COLO 205
  GI50: > 100 µM (inactive)
M14
  GI50: > 100 µM (inactive)
HCC 2998
  GI50: > 100 µM (inactive)
CCRF-CEM
  GI50: 38.9 µM (inactive)
UO-31
  GI50: > 100 µM (inactive)
A549
  GI50: > 100 µM (inactive)
U-251
  GI50: > 100 µM (inactive)
RXF 393
  GI50: > 10 µM (inactive)
UACC-62
  GI50: 27.4 µM (inactive)
SF-268
  GI50: > 100 µM (inactive)
M19-MEL
  GI50: > 100 µM (inactive)
K562
  GI50: > 100 µM (inactive)
SK-OV-3
  GI50: > 100 µM (inactive)
ACHN
  GI50: > 100 µM (inactive)
EKVX
  GI50: > 100 µM (inactive)
786-0
  GI50: > 100 µM (inactive)
NCI-H460
  GI50: 76.6 µM (inactive)
Malme-3M
  GI50: > 100 µM (inactive)
HCT-116
  GI50: > 100 µM (inactive)
SR
  GI50: 57.9 µM (inactive)
LOX IMVI
  GI50: > 100 µM (inactive)
SW-620
  GI50: > 100 µM (inactive)
SNB-19
  GI50: > 100 µM (inactive)
SF-295
  GI50: > 100 µM (inactive)
DMS-114
  GI50: > 100 µM (inactive)
SF-539
  GI50: > 100 µM (inactive)
IGROV-1
  GI50: > 100 µM (inactive)
SN12C
  GI50: > 100 µM (inactive)
RPMI-8226
  GI50: > 100 µM (inactive)
HT-29
  GI50: 8.07 µM (inactive)
DMS-273
  GI50: > 100 µM (inactive)
OVCAR-3
  GI50: > 100 µM (inactive)
NCI-H522
  GI50: 99.8 µM (inactive)
HOP-62
  GI50: > 100 µM (inactive)
DLD-1
  GI50: > 100 µM (inactive)
LXFL 529
  GI50: > 100 µM (inactive)
HCT-15
  GI50: > 100 µM
SNB-78
  GI50: > 100 µM (inactive)
KM12
  GI50: > 100 µM (inactive)
KM-20L2
  GI50: > 100 µM (inactive)
NCI-H226
  GI50: > 100 µM (inactive)
SNB-75
  GI50: > 100 µM (inactive)
